Laboratory results taken from patent publication US20220304941A1, “COMPOSITION FOR PREVENTING OR TREATING ORAL DISEASES” (TECOZYME INC, priority 2019, published 2022).

Assays:
[1] = tested on: bacteria in plaque (species of Table 1); assay: Antibacterial test of 1,2,3-butanetriol: gDNA extraction and PCR per bacterial species; type: cell-based, oral bacteria; conditions: PCR of gDNA after butanetriol treatment, FIG. 3
Text: From the above cultured strain, gDNA was extracted, and the bacteria were identified through PCR. [table] Separately from the absorption rate measurement, gDNA was extracted from the well microplate after treatment with butanetriol, and the results identified by PCR are shown in FIG. 3.

human fibroblasts = assay: Cytotoxicity test: culture viability of human fibroblasts (Cell Counting Kit-8); type: cell-based; conditions: 48 hours treatment, FIG. 1
Method: First, to examine the biotoxicity of 1,2,3-butanetriol, culture survival experiments of human fibroblasts according to the concentration change of 1,2,3-butanetriol were conducted.
The initial seeding density was 5000 cells/well based on 96 wells, and the culture conditions were as follows:
Dulbecco's Modified Eagle Medium (DMEM)+Fetal Bovine Serum (FBS) 10%; 37° C., 5% CO2; and 12 hours after seeding, 1,2,3-butanetriol was treated at different concentrations to determine cytotoxicity, and after 48 hours of 1,2,3-butanetriol treatment, Dojindo Cell Counting Kit-8 was dispensed at a rate of 10 μl per well and incubated at 37° C. for 2 hours, then cell viability was measured at 450 nm Absorbance.
FIG. 1 is a graph illustrating the culture viability of human fibroblasts according to the concentration change of 1, 2,3-butanetriol, and the horizontal axis of FIG. 1 indicates the concentration of the treated 1,2,3-butanetriol in an mM unit.

bacteria in plaque = assay: Antibacterial test of 1,2,3-butanetriol: growth of cultured plaque bacteria, absorption at 600 nm; type: cell-based, oral bacteria; conditions: FIG. 2
Method: Subsequently, to examine the effect of inhibiting bacterial activity in plaque, bacterial strains were prepared as follows. First, plaque was collected from three research participants, and was cultured in a BHI medium (Bovine Heart Infusion 4 g/160 ml distilled water-DDW) with 1 wt. % sucrose added for 24 hours. From the above cultured strain, gDNA was extracted, and the bacteria were identified through PCR. BHI medium (Bovine Heart Infusion 4 g/160 ml distilled water-DDW) with 1wt. % sucrose added was prepared and sterilized in a high-temperature and high-pressure autoclave. Then, 1,2, 3-butanetriol (1,2,3-BT) was dispensed to each concentration, and a 96-well microplate containing 180 μl of the culture solution was prepared. Here, 20 μl of the culture solution in which the bacteria in plaque prepared above was proliferated was dispensed per well. This microplate was placed in a Biotek Synergy 2 microplate reader, the temperature was adjusted to 37° C., and the absorption rate was measured at 600 nm.

SMILES: CC(O)C(O)CO (racemic) [1,2,3-butanetriol]
- growth inhibitory effect on each bacterial species [1]: clearly identified
- cell viability (human fibroblasts; concentration of about 12.5 mM or less): not significantly reduced
- cell viability (human fibroblasts; concentration of about 25 mM): about 50%
- effect of inhibiting bacterial growth (at least) (bacteria in plaque; 12 hours after culturing, compared to no 1,2,3-butanetriol treatment, lowest effect): at least 10%
- effect of inhibiting bacterial growth (maximum) (bacteria in plaque; 12 hours after culturing, compared to no 1,2,3-butanetriol treatment, maximum effect): ≥ 50%
- bacterial growth (bacteria in plaque; plaque bacteria in BHI medium with 1 wt. % sucrose, 37° C.): significantly effectively inhibited
